From ChEMBL document CHEMBL2417475, “Synthesis and SAR studies of marine natural products ma'edamines A, B and their analogues” (Bioorg Med Chem Lett, 2013)

Tests used:
Type in all cases: functional, cell-based
SK-BR-3 = test: Antiproliferative activity against human estrogen receptor and progesterone receptor deficient SKBR3 cells expressing HER2 after 72 hrs by MTT assay; settings: SK-BR-3, 72 h
CAMA-1 = test: Antiproliferative activity against human progesterone receptor and HER2 deficient CAMA1 cells expressing estrogen receptor after 72 hrs by MTT assay; settings: CAMA-1, 72 h
T47D = test: Antiproliferative activity against human HER2 deficient T47D cells expressing estrogen receptor and progesterone receptor after 72 hrs by MTT assay

SMILES | IC50 (SK-BR-3) [µM] | IC50 (T47D) [µM] | IC50 (CAMA-1) [µM]
COc1ccc(Cc2nc(-c3cc(Br)c(O)c(Br)c3)cnc2Cl)cc1Br | > 10 | > 10 | > 10
CN(C)CCCOc1c(Br)cc(-c2c[nH]c(=O)c(Cc3ccccc3)n2)cc1Br | 5.5 | 6.33 | 7.1
CNCCCOc1c(Br)cc(-c2c[nH]c(=O)c(Cc3ccccc3)n2)cc1Br | > 10 | > 10 | > 10
CNCCOc1c(Br)cc(-c2c[nH]c(=O)c(Cc3ccc(OC)c(Br)c3)n2)cc1Br | 8.1 | 6.18 | > 10
COc1ccc(Cc2nc(-c3cc(Cl)c(OCCCN(C)C)c(Cl)c3)c[nH]c2=O)cc1Cl | > 10 | > 10 | > 10
CN(C)CCCOc1c(Br)cc(-c2c[nH]c(=O)c(Cc3c[nH]c4ccccc34)n2)cc1Br | 7 | 6.33 | > 10
CNCCCOc1c(Br)cc(-c2c[nH]c(=O)c(Cc3c[nH]c4ccccc34)n2)cc1Br | 4.33 | 4 | 5.77
COc1ccc(Cc2nc(-c3cc(Br)c(OCCCN4CCOCC4)c(Br)c3)c[nH]c2=O)cc1Br | > 10 | > 10 | > 10
CCN(CC)CCCOc1c(Br)cc(-c2c[nH]c(=O)c(Cc3ccc(OC)c(Br)c3)n2)cc1Br | 6 | > 10 | 5.23
COc1ccc(Cc2nc(-c3ccc(OCCCN4CCOCC4)cc3)c[nH]c2=O)cc1 | > 10 | > 10 | > 10
CN(C)CCCOc1c(Br)cc(-c2c[nH]c(=O)c(Cc3ccc(O)c(Br)c3)n2)cc1Br | 5.67 | 4.77 | 6.67
COc1ccc(Cc2nc(-c3cc(Br)c(OCCCCN(C)C)c(Br)c3)c[nH]c2=O)cc1Br | > 10 | > 10 | > 10
CNCCCOc1ccc(-c2c[nH]c(=O)c(Cc3c[nH]c4ccccc34)n2)cc1 | > 20 |  | > 20
O=c1[nH]cc(-c2ccccc2)nc1Cc1ccccc1 | > 10 | > 10 | > 10
CNCCCOc1c(Br)cc(-c2c[nH]c(=O)c(Cc3ccc(OC)c(Br)c3)n2)cc1Br [Ma'edamine B] | 4 | 6 | 5.77

Second part, led by results:

IC50 (SK-BR-3) [µM] | IC50 (T47D) [µM] | SMILES | IC50 (CAMA-1) [µM]
5.73 | 5.67 | COc1ccc(Cc2nc(-c3cc(Br)c(OCCN(C)C)c(Br)c3)c[nH]c2=O)cc1Br | > 10
> 10 | > 10 | CC(C)c1nc(-c2cc(Br)c(OCCCN(C)C)c(Br)c2)c[nH]c1=O | > 10
> 10 | > 10 | COc1ccc(Cc2nc(-c3ccc(OCCCN(C)C)cc3)c[nH]c2=O)cc1 | > 10
> 10 | > 10 | COc1ccc(Cc2nc(-c3cc(Br)c(OCCCCN4CCOCC4)c(Br)c3)c[nH]c2=O)cc1Br | > 10
> 10 | > 10 | COc1ccc(Cc2nc(-c3ccc(OCCCCN(C)C)cc3)c[nH]c2=O)cc1 | > 10
> 20 |  | CN(C)CCCOc1ccc(-c2c[nH]c(=O)c(Cc3c[nH]c4ccccc34)n2)cc1 | > 20
5.05 | > 10 | CS(=O)(=O)CCNCc1ccc(-c2ccc3ncnc(Nc4ccc(OCc5cccc(F)c5)c(Cl)c4)c3c2)o1 [LAPATINIB] | > 10
> 10 | > 10 | COc1ccc(Cc2nc(-c3cc(Br)c(OCCCN(C)C)c(Br)c3)c[nH]c2=O)cc1Br [Ma'edamine A] | > 10
